# Structures can show the parent of a compound that is named as a salt. Residues, ends and D or L forms follow the SMILES beside them. *: point of attachment. Cbz = O=C(OCc1ccccc1)*; CH2F = FC*
# Legend:
# [1] = water; hydrochloride salt; cited from earlier work
# [2] = system: cultured monkey corneal endothelial cells; test: p38 MAPK activation induces apoptosis: Western blot in cultured monkey corneal endothelial cells; type: cell-based; conditions: Western blot after 9 hours
# Method: 1×10^5 cultured monkey corneal endothelial cells were seeded on a 12-well plate coated with an FNC Coating Mix and cultured for about 5 days until reaching confluence under the condition of 5% CO2 at 37° C. The medium used was Dulbecco's Modified Eagle Medium (Gibco, 12320-032), 10% FBS, 1% Penicillin-Streptomycin (nacalai tesque, 26252-94).
# As acclimation treatment, Z-VAD (OMe)-FMK (Wako Pure Chemical Industries, Ltd. 269-02071) was then added at a concentration of 10 μM and the cells were incubated for 16 hours under the condition of 5% CO2 at 37° C. For the Control group and anisomysin group, a solvent of a reagent Dimethyl Sulfoxide (DMSO) (Dimethyl Sulfoxide, Sterile-filtered; nacalai tesque, 13408-64) was added. The medium used was Gibco DMEM, 1% P/S. The cellular supernatant was then removed, and anisomysin (Wako Pure Chemical Industries Ltd., 017-16861) was added to the anisomysin group and the anisomysin+Z-VAD-FMK group at a concentration of 10 μM. 10 μM of Z-VAD was added with anisomysin to the anisomysin+Z-VAD-FMK group. DMSO was added to the groups to which Z-VAD-FMK was not added. The cells were then cultured for 9 hours. The cellular form was observed under a phase difference microscope. A picture was taken after 9 hours.
# After 9 hours, cell proteins were collected. The amount of protein expression was compared by Western blot. Anti-caspase 3 antibodies (cell signaling, 9662S), anti-p38 MAPK antibodies (cell signaling, #9212), and anti-pp38 MAPK antibodies (cell signaling, #4631S) were used as the antibodies. Further, anti-GAPDH antibodies (MBL, 3H12) were used as the internal standard.
smiles,measurement,setting,value
"C[S+]([O-])c1ccc(-c2nc(-c3ccncc3)c(-c3ccc(F)cc3)[nH]2)cc1 (stereo not shown) [SB203580 hydrochloride, 4-(4-fluorophenyl)-2-(4-methylsulfinylphenyl)-5-(4-pyridyl)-1H-imidazole]",water solubility,[1],water-soluble
COC(=O)C[C@H](NC(=O)[C@H](C)NC(=O)[C@@H](NC(=O)OCc1ccccc1)C(C)C)C(=O)CF [Z-VAD-FMK] (Cbz-Val-Ala-Asp(OMe)-CH2F),Caspase 3 activation induced by anisomycin,[2]; 10 μM Z-VAD-FMK with 10 μM anisomycin,suppressed
"COc1ccc(C[C@H]2NC[C@H](O)[C@@H]2OC(C)=O)cc1 [anisomysin, (2R,3R,4S)-2-[(4-methoxyphenyl)methyl]-3,4-pyrrolidinediol-3-acetate]",Phosphorylation of p38,[2]; 10 μM,observed
same,activation due to cleavage of caspase 3,[2]; 10 μM,observed
